In US8481561B2, “Classes of GABAA/BZR ligands” (Innovationspatent Sverige AB, priority 2008, dated 2013) one finds Ki and melting point data, which are given here for 7 compounds.

Data set [1] deals with benzodiazepine receptor. Briefly: Displacement of 3H-flumazenil binding in rat cortical tissue (receptor binding). To be noted: 3H-Flumazenil binding in vitro, rat cortical membranes; mean of three determinations. As to the method:
Affinity of test substances for the benzodiazepine receptor was determined in vitro by displacement of ^3H-flumazenil in rat cortical tissue.

`Cc1ccc2[nH]c3snc(-c4ccc([N+](=O)[O-])cc4)c3c(=O)c2c1` [Compound 23, 6-Methyl-3-(4-nitrophenyl)-isothiazolo[5,4-b]quinolin-4(9H)-one]: the melting point is 343 °C. In addition, the Ki in data set [1] worked out at 5.5 nM.

For `CCCC(=O)Nc1nsc2[nH]c3ccc(C)cc3c(=O)c12` [Compound 31, N-(6-methyl-4-oxo-4,9-dihydroisothiazolo[5,4-b]quinolin-3-yl)butanamide], the Ki in data set [1] was found to be 2 nM.

Compound `Cc1ccc2[nH]c3snc(-c4ccc(Br)cc4)c3c(=O)c2c1` [Compound 21, 3-(4-Bromophenyl)-6-methylisothiazolo[5,4-b]quinolin-4(9H)-one] gave a melting point of 357 °C. In data set [1], this compound came in with a Ki of 5.3 nM.

Turning to `COc1ccc(-c2nsc3[nH]c4ccc(C)cc4c(=O)c23)cc1` [Compound 22, 3-(4-Methoxyphenyl)-6-methylisothiazolo[5,4-b]quinolin-4(9H)-one], the affinity in data set [1] corresponds to a Ki of 2 nM. This lies in the single-digit nanomolar range.

With `Cc1ccc(-c2nsc3[nH]c4ccc(C)cc4c(=O)c23)cc1` [Compound 19, 6-Methyl-3-(4-methylphenyl)isothiazolo[5,4-b]quinolin-4(9H)-one], the melting point was determined as 330 °C. The affinity in data set [1], expressed as Ki, was 1.9 nM.

`Cc1ccc2[nH]c3onc(-c4ccccc4)c3c(=O)c2c1` [Compound 26, 6-Methyl-3-phenyl-isoxazolo[5,4-b]quinolin-4(9H)-one] returned a Ki in data set [1] of 18 nM.

In turn, `Cc1ccc(-c2nsc3[nH]c4ccc(Br)cc4c(=O)c23)cc1` [Compound 24, 6-Bromo-3-(4-methylphenyl)isothiazolo[5,4-b]quinolin-4(9H)-one] gave a melting point of 331 °C. This compound also came in with a Ki in data set [1] of 2.9 nM.
